Holding throughout (assay type): biochemical
One assay addresses Bovine LOX (Bos taurus (Bovine), UniProt P33072). Put plainly: LOX inhibition, Amplex Red oxidation assay. The conditions noted are these: 30 min preincubation at 37 °C, putrescine substrate. From the text:
Lysyl oxidase (LOX) is an extracellular copper dependent enzyme which oxidizes peptidyl lysine and hydroxylysine residues in collagen and lysine residues in elastin to produce peptidyl alpha-aminoadipic-delta-semialdehydes. […] There are five LOX family members; these are LOX, LOXL1, LOXL2, LOXL3 and LOXL4. LOX and LOXL family members can be acquired as recombinant active proteins from commercial sources, or extracted from animal tissues like bovine aorta, tendons, pig skin; or prepared from cell cultures. The inhibitory effects of the compounds of the present invention were tested against the given LOX-LOXL preparation using a method based on the detection of hydrogen peroxide with an Amplex Red oxidation assay (Zhou et al. A stable nonfluorescent derivative of resorufin for the fluorometric determination of trace hydrogen peroxide: applications in detecting the activity of phagocyte NADPH oxidase and other oxidases. Anal. Biochem. 1997; 253, 162-168). The assay was developed using either 384 or 96 well format. Briefly, in a standard black, clear bottom 384 well plate assay 25 μL of a dilution of any of the isoenzymes and orthologues in 1.2 M urea, 50 mM sodium borate buffer (pH 8.2) were added into each well in the presence of 1 μM mofegiline and 0.5 mM pargyline (to inhibit SSAO and MAO-B and MAO-A, respectively; not necessary if the enzyme is from a recombinant or purified form). […] Twenty five μL of a reaction mixture containing twice the KM concentration of putrescine (Sigma Aldrich, e.g. 20 mM for LOX, or 10 mM for LOXL2 and LOXL3), 120 μM Amplex Red (Sigma Aldrich) and 1.5 U/mL horseradish peroxidase (Sigma Aldrich) prepared in 1.2 M urea, 50 mM sodium borate buffer (pH 8.2) were then added to the corresponding wells. The above volumes were doubled in the case of 96 wells plate. The fluorescence (RFU) was read every 2.5 min for 30 min at […] 37° C., excitation 565 nm and emission 590 (Optima; BMG labtech). The slope of the kinetics for each well was calculated using MARS data analysis software (BMG labtech) and this value was used to deduce the IC50 value (Dotmatics).

The target of another assay is LOXL2 (Homo sapiens (Human), UniProt Q9Y4K0). Put plainly: LOXL2 inhibition, Amplex Red oxidation assay. The following applies: 30 min preincubation at 37 °C, putrescine substrate. The source says: Lysyl oxidase (LOX) is an extracellular copper dependent enzyme which oxidizes peptidyl lysine and hydroxylysine residues in collagen and lysine residues in elastin to produce peptidyl alpha-aminoadipic-delta-semialdehydes. […] There are five LOX family members; these are LOX, LOXL1, LOXL2, LOXL3 and LOXL4. LOX and LOXL family members can be acquired as recombinant active proteins from commercial sources, or extracted from animal tissues like bovine aorta, tendons, pig skin; or prepared from cell cultures. The inhibitory effects of the compounds of the present invention were tested against the given LOX-LOXL preparation using a method based on the detection of hydrogen peroxide with an Amplex Red oxidation assay (Zhou et al. A stable nonfluorescent derivative of resorufin for the fluorometric determination of trace hydrogen peroxide: applications in detecting the activity of phagocyte NADPH oxidase and other oxidases. Anal. Biochem. 1997; 253, 162-168). The assay was developed using either 384 or 96 well format. Briefly, in a standard black, clear bottom 384 well plate assay 25 μL of a dilution of any of the isoenzymes and orthologues in 1.2 M urea, 50 mM sodium borate buffer (pH 8.2) were added into each well in the presence of 1 μM mofegiline and 0.5 mM pargyline (to inhibit SSAO and MAO-B and MAO-A, respectively; not necessary if the enzyme is from a recombinant or purified form). Test compounds were dissolved in DMSO and tested in a Concentration Response Curve (CRC) with 11 data points, typically in the micromolar or nanomolar range after incubation with the enzyme for 30 min at 37° C. Twenty five μL of a reaction mixture containing twice the KM concentration of putrescine (Sigma Aldrich, e.g. 20 mM for LOX, or 10 mM for LOXL2 and LOXL3), 120 μM Amplex Red (Sigma Aldrich) and 1.5 U/mL horseradish peroxidase (Sigma Aldrich) prepared in 1.2 M urea, 50 mM sodium borate buffer (pH 8.2) were then added to the corresponding wells. The above volumes were doubled in the case of 96 wells plate. The fluorescence (RFU) was read every 2.5 min for 30 min at […] 37° C., excitation 565 nm and emission 590 (Optima; BMG labtech). The slope of the kinetics for each well was calculated using MARS data analysis software (BMG labtech) and this value was used to deduce the IC50 value (Dotmatics).
Sequence of LOXL2 (Q9Y4K0 26-774): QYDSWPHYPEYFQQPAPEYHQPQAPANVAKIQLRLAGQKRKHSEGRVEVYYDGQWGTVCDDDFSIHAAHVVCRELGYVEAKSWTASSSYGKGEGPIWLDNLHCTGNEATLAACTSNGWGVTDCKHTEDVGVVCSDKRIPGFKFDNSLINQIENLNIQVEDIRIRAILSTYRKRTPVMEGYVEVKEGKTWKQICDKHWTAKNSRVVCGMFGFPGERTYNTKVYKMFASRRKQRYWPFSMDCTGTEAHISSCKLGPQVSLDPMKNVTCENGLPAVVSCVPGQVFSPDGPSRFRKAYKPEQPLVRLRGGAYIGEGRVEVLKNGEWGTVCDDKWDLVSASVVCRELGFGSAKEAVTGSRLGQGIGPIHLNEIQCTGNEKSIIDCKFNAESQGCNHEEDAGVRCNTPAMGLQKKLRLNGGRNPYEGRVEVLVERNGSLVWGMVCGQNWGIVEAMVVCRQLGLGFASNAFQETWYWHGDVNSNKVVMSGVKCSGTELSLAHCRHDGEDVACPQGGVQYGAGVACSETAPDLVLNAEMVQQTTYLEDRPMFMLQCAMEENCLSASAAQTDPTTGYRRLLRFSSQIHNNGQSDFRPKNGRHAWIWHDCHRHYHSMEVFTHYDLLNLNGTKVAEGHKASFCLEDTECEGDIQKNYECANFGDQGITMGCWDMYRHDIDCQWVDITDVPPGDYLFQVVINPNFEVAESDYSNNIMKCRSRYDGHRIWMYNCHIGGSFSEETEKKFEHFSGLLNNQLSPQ

The target in assay [1] is Human recombinant SSAO/VAP-1 (Homo sapiens (Human), UniProt Q16853). As to the kind of experiment: Inhibition of human recombinant SSAO/VAP-1. The following applies: 30 min preincubation at 37 °C, benzylamine 600 μM; read-out: SSAO/VAP-1 Activity IC50. How it is done: Human recombinant SSAO/VAP-1 amine oxidase activity was determined using the coupled colorimetric method as described for monoamine oxidase, copper-containing amine oxidases and related enzymes (Holt A. and Palcic M., A peroxidase-coupled continuous absorbance plate-reader assay for flavin monoamine oxidases, copper-containing amine oxidases and related enzymes. Nat Protoc 2006; 1: 2498-2505). Briefly, a cloned cDNA template corresponding to residues 34-763 of human SSAO/VAP-1, and incorporating a mouse Ig kappa (κ) signal sequence, N-terminal flag epitope tag and tobacco etch virus (TEV) cleavage site, was assembled in a mammalian expression vector (pLO-CMV) by Geneart AG. This vector containing human SSAO/VAP-1 residues was transfected into CHO-Kl glycosylation mutant cell line, Lec 8. A clone stably expressing human SSAO/VAP-1 was isolated and cultured in large scale. Active human SSAO/VAP-1 was purified and recovered using immunoaffinity chromatography. This was used as the source for SSAO/VAP-1 activity. A high-throughput colorimetric assay was developed using either 96 or 384 well format. Briefly, in a standard 96 well plate assay 50 μL of purified human SSAO/VAP-1 (0.25 μg/mL) in 0.1 M sodium phosphate buffer (pH 7.4) was added into each well. Test compounds were dissolved in DMSO and tested in a Concentration Response Curve (CRC) with 4-11 data points, typically in the micromolar or nanomolar range after incubation with human SSAO/VAP-1 for 30 min at 37° C. After 30 min incubation, 50 μL of the reaction mixture containing 600 μM benzylamine (Sigma Aldrich), 120 μM Amplex Red (Sigma Aldrich) and 1.5 U/mL horseradish peroxidase (Sigma Aldrich) prepared in 0.1 M sodium phosphate buffer (pH 7.4) were added to the corresponding well. The fluorescence unit (RFU) was read every 2.5 min for 30 min at 37° C. excitation 565 nm and emission 590 (Optima; BMG labtech). The slope of the kinetics for each well was calculated using MARS data analysis software (BMG labtech) and this value was used to deduce the IC50 value (Dotmatics).
Sequence of Human recombinant SSAO/VAP-1 (Q16853 34-763): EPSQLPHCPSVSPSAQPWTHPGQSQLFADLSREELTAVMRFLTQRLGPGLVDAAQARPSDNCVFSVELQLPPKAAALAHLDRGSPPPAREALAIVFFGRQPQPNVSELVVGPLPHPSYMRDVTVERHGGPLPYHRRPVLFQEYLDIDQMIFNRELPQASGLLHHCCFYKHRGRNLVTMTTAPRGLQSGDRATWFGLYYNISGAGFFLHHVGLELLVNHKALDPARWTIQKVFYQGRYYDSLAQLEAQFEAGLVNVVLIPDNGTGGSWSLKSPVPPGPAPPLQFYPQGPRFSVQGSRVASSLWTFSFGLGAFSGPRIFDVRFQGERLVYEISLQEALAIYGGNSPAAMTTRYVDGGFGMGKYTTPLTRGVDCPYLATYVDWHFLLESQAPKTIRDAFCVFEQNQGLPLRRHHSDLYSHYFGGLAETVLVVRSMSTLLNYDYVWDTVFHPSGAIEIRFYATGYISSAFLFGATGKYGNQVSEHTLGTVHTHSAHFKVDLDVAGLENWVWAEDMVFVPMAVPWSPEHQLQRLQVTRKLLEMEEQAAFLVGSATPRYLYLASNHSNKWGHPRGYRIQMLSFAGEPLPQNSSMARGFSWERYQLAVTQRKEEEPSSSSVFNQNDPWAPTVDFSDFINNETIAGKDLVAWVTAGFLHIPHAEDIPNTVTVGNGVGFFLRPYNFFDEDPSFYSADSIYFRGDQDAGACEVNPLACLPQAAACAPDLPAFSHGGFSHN

The target in a further assay is Recombinant human MAO-B (Homo sapiens (Human), UniProt P27338). Put plainly: Inhibition of human recombinant MAO-B. The conditions noted are these: benzylamine 100 μM. How it is done: The specificity of the compounds of this invention was tested by determining their ability to inhibit MAO-B activities in vitro. Recombinant human MAO-B (0.06 mg/mL; Sigma Aldrich) was used as source of MAO-B enzyme activities. The assay was performed in a similar way as for human SSAO/VAP-1 (Example 28) except, the substrate benzylamine was used at 100 μM.
Sequence of Recombinant human MAO-B (P27338 whole entry): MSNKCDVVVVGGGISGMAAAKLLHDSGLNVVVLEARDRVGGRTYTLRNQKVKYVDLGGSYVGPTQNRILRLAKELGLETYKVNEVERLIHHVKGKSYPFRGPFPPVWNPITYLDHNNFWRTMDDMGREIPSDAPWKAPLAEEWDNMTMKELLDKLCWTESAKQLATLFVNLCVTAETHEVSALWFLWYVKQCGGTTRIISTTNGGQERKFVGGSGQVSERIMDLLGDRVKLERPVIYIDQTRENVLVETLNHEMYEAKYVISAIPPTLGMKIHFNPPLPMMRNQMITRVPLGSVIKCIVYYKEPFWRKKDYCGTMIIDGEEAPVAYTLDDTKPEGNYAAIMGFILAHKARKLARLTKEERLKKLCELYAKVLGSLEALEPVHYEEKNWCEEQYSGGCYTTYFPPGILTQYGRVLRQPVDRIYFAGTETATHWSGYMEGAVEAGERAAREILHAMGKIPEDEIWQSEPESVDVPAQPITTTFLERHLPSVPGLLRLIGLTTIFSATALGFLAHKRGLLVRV

The next assay deals with LOXL1 (Homo sapiens (Human), UniProt Q08397). As to the kind of experiment: Jump dilution experiment, sustained inhibition of LOXL1.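 Also: 30× IC50 used only where needed so inhibitor exceeds enzyme concentration.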 The conditions noted are these: jump dilution after 40 min at 37 °C with 10× or 30× IC50; vs non-inhibited controls. How it is done: Jump Dilution experiment: The assay was developed using a 96 well format and the starting enzyme concentration was set 100 times higher than for the inhibition studies. […] After the incubation, the mixture was diluted 50× in assay buffer, followed by a further 2× dilution in Amplex Red-horseradish peroxidase-putrescine reaction mix (same as per the inhibition studies) prior to the fluorescent measurement. Results were expressed in % recovery of the signal after a specified time by comparison with non-inhibited controls.
Sequence of LOXL1 (Q08397 96-574, species assumed): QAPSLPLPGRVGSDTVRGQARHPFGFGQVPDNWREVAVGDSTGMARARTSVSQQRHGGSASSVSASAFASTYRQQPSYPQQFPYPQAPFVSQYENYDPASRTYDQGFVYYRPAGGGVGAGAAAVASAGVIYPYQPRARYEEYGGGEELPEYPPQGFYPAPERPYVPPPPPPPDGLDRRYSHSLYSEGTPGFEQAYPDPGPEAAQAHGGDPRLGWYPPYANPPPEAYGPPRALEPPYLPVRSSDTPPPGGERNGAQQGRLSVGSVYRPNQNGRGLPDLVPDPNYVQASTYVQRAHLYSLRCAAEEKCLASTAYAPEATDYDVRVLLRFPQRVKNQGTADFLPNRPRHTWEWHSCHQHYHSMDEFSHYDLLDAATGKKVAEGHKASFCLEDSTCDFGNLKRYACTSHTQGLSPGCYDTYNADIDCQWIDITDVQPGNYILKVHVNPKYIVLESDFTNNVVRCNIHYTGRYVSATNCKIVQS

The values that follow come from patent US12178791B2, “Haloallylamine sulfone derivative inhibitors of lysyl oxidases and uses thereof” (Syntara Limited, priority 2018, dated 2024).

Structures are written as SMILES. Counter-ions that a name gives are not always drawn. Where only a bound is given, the exact number is not on record here.

Sequence of Bovine LOX (P33072 170-418): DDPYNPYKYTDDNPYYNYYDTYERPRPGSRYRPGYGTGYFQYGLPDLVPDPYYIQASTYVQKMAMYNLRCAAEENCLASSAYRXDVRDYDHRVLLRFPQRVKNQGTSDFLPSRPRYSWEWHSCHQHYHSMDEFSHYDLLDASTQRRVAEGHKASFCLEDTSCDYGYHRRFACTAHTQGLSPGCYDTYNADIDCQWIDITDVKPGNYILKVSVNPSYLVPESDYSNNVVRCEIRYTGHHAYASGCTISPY

Regarding `NC/C=C(\F)CS(=O)(=O)c1cc(C(F)(F)F)cc(C(F)(F)F)c1` [Compound 2, (Z)-4-((3,5-bis(trifluoromethyl)phenyl)sulfonyl)-3-fluorobut-2-en-1-amine hydrochloride], the IC50 against Bovine LOX is under 10 µM; at LOXL2, under 10 µM; in assay [1] it was over 30 µM; on Recombinant human MAO-B, over 30 µM.
As to `CS(=O)(=O)c1ccc(S(=O)(=O)C/C(F)=C/CN)cc1` [Compound 3, (Z)-3-fluoro-4-((4-(methylsulfonyl)phenyl)sulfonyl)but-2-en-1-amine], the IC50 at Bovine LOX was under 10 µM; at LOXL2 it was under 10 µM; in assay [1], over 30 µM; at Recombinant human MAO-B, over 30 µM.
For the compound `NC/C=C(\F)CS(=O)(=O)c1ccccc1OCc1ccccc1` [Compound 7, (Z)-4-((2-(benzyloxy)phenyl)sulfonyl)-3-fluorobut-2-en-1-amine hydrochloride], the IC50 against Bovine LOX was under 10 µM; at LOXL2, under 1 µM; in assay [1] it was over 30 µM; at Recombinant human MAO-B, over 30 µM. At LOXL1, the “LOXL1 - Recovery of activity. (%)” value was determined as 3.0%.
As to `NC/C=C(\F)CS(=O)(=O)c1ccccc1OCc1ccc(S(N)(=O)=O)cc1` [Compound 8, (Z)-4-((2-((4-amino-2-fluorobut-2-en-1-yl)sulfonyl)phenoxy)methyl)benzenesulfonamide hydrochloride], the IC50 on Bovine LOX is under 1 µM; on LOXL2, under 1 µM; in assay [1], over 30 µM; at Recombinant human MAO-B it was over 30 µM. The “LOXL1 - Recovery of activity. (%)” value on LOXL1 worked out at 35.1%.
In the case of `NC/C=C(\F)CS(=O)(=O)c1cccc2ccccc12` [Compound 23, (Z)-3-fluoro-4-(naphthalen-1-ylsulfonyl)but-2-en-1-amine hydrochloride], the results for the IC50 (against Bovine LOX; on LOXL2; in assay [1]) were under 10 µM, under 1 µM and over 30 µM, respectively.
On to `NC/C=C(\F)CS(=O)(=O)c1cc(Cl)cc(Cl)c1` [Compound 28, (Z)-4-(3,5-dichlorophenylsulfonyl)-3-fluorobut-2-en-1-amine hydrochloride], for which the IC50 was under 10 µM at Bovine LOX, under 1 µM against LOXL2 and over 30 µM in assay [1].
On to `NC/C=C(\F)CS(=O)(=O)c1ccncc1` [Compound 29, (Z)-3-fluoro-4-(pyridin-4-ylsulfonyl)but-2-en-1-amine dihydrochloride], for which the IC50 on Bovine LOX is under 10 µM; against LOXL2, under 1 µM. Besides, the “LOXL1 - Recovery of activity. (%)” value on LOXL1 is 8.6%.
Consider `NC/C=C(\F)CS(=O)(=O)c1ccccn1` [Compound 30, (Z)-3-fluoro-4-(pyridin-2-ylsulfonyl)but-2-en-1-amine dihydrochloride], for which the IC50 on Bovine LOX is under 10 µM; against LOXL2, under 1 µM. In addition, the “LOXL1 - Recovery of activity. (%)” value at LOXL1 came to 1.9%.
Turning to `NC/C=C(\F)CS(=O)(=O)c1ccc2ccccc2n1` [Compound 32, (Z)-3-fluoro-4-(quinolin-2-ylsulfonyl)but-2-en-1-amine dihydrochloride], the IC50 on Bovine LOX was under 10 µM; on LOXL2 it was under 1 µM; on Recombinant human MAO-B it was over 30 µM.
Turning to `NC/C=C(\F)CS(=O)(=O)c1cccc(F)c1` [Compound 38, (Z)-3-fluoro-4-(3-fluorophenylsulfonyl)but-2-en-1-amine hydrochloride], the IC50 is under 10 µM at Bovine LOX and under 1 µM against LOXL2. Further, at LOXL1, the “LOXL1 - Recovery of activity. (%)” value was 1.6%.
In the case of `CC(C)c1ncccc1S(=O)(=O)C/C(F)=C/CN` [Compound 45, (Z)-3-fluoro-4-(2-isopropylpyridin-3-ylsulfonyl)but-2-en-1-amine dihydrochloride], the values for the IC50 (at Bovine LOX; against LOXL2; in assay [1]) were under 10 µM, under 1 µM and over 30 µM, respectively. In addition, the “LOXL1 - Recovery of activity. (%)” value at LOXL1 came to 6.6%.
Consider `Cc1ccc(S(=O)(=O)C/C(F)=C/CN)cn1` [Compound 46, (Z)-3-fluoro-4-(6-methylpyridin-3-ylsulfonyl)but-2-en-1-amine dihydrochloride], for which the IC50 is under 10 µM at Bovine LOX and under 1 µM on LOXL2. The “LOXL1 - Recovery of activity. (%)” value on LOXL1 was 1.0%.
Regarding `Cc1nc2c(S(=O)(=O)C/C(F)=C/CN)cccc2s1` [Compound 50, (Z)-3-fluoro-4-((2-methylbenzo[d]thiazol-4-yl)sulfonyl)but-2-en-1-amine hydrochloride], the IC50 at Bovine LOX was under 10 µM; on LOXL2 it was under 1 µM; in assay [1], over 30 µM.
With `NC/C=C(\F)CS(=O)(=O)c1cccc2cc(F)cnc12` [Compound 51, (Z)-3-fluoro-4-((3-fluoroquinolin-8-yl)sulfonyl)but-2-en-1-amine dihydrochloride], the IC50 is under 10 µM at Bovine LOX, under 1 µM against LOXL2, over 10 µM in assay [1] and over 30 µM on Recombinant human MAO-B.
